Reference: PMC9400670, “Establishing the selective phospholipid membrane coordination, permeation and lysis properties for a series of ‘druggable’ supramolecular self-associating antimicrobial amphiphiles” (Chemical Science, 2022)

What follows are molecules tested on E. coli total lipid vesicles (assay: Synthetic phospholipid vesicle membrane binding assay (fluorescence polarisation), E. coli total vesicles). Settings: lipid vesicles added to SSA (0.15 mM); n = 3; error = standard error; SSA alone set to 100 mP.
Protocol: For intrinsically fluorescent SSAs 5, 6 and 8–12, FP titration experiments enabled the observation of SSA: phospholipid vesicle interactions. Here, an increase in FP value indicates an increase in the apparent size of the SSA as it interacts with the phospholipid vesicle. […]
(§1) Fluorescence polarisation: Lipid films were resuspended in Buffer (150 mM KCl, 10 mM HEPES, pH 7.4, 2 mM EGTA) and subjected to 9 freeze-thaw cycles in liquid nitrogen and extruded 20 times through a 200 nm polycarbonate membrane. Black bottom 96-well plates were prepared by serially diluting desired vesicle solution across the plate, the appropriate SSA solution (100 µL, 0.15 mM) was added to each well to give a total well volume of 200 µL. Fluorescent SSA solutions were set to a FP value of 100 mP. Data were acquired in endpoint mode. […]
For `O=C(NCS(=O)(=O)O)Nc1ccccc1-c1nc2ccccc2s1` [SSA 5], the “increase in FP, E. coli total” value was 32 ± 3 mP. In the case of `Cc1ccc2nc(-c3ccc(NC(=O)NCS(=O)(=O)O)cc3)sc2c1` [SSA 6], the “increase in FP, E. coli total” value was 20 ± 1 mP. For `O=C(NCS(=O)(=O)O)Nc1ccc(-c2nc3ccccc3s2)cc1` [SSA 8], the “increase in FP, E. coli total” value was 24 ± 3 mP. `Cc1ccc2nc(-c3ccc(NC(=O)NCCC(=O)O)cc3)sc2c1` [SSA 9] was tested, and the “increase in FP, E. coli total” value was 130 ± 5 mP. In the case of `Cc1ccc2nc(-c3ccc(NC(=O)NCCCS(=O)(=O)O)cc3)sc2c1` [SSA 10], the “increase in FP, E. coli total” value was 15 ± 2 mP. With `Cc1ccc2nc(-c3ccc(NC(=O)NCC(=O)O)cc3)sc2c1` [SSA 11] the “increase in FP, E. coli total” value was 66 ± 4 mP. `Cc1ccc2nc(-c3ccc(NC(=S)NCS(=O)(=O)O)cc3)sc2c1` [SSA 12] was tested, and the “increase in FP, E. coli total” value was 199 ± 5 mP.

The molecules below were run on phospholipid vesicles (PC, PG, PE-PG mix, E. coli total, E. coli polar) (assay: Vesicle membrane binding assay (FP), comparison across the five vesicle types). Settings: SSA 0.15 mM, in words.
Description: For intrinsically fluorescent SSAs 5, 6 and 8–12, FP titration experiments enabled the observation of SSA: phospholipid vesicle interactions. Here, an increase in FP value indicates an increase in the apparent size of the SSA as it interacts with the phospholipid vesicle.
The results of these studies have been summarised for convenience in Table 3 however, specific SSA: phospholipid vesicle interactions are also exemplified within Fig. 8. […] Here phospholipid vesicle selectivity appears to be driven by the presence of a methyl substituent appended from the benzothiazole unit, in addition to a urea-methyl/ethyl spacer-anionic functionality. Interesting the presence of the thiourea group, increasing SSA […] and increasing hydrogen bond donor acidity, while increasing the levels of vesicle interaction overall, decreased any specific SSA selectivity. […]
as §1
1H NMR CPMG: 1H NMR CPMG3,4 spectra were obtained with a Bruker Avance III […] spectrometer equipped with a TCIP cryoprobe at 298 K. Samples were supplemented with 5 % D 2O and 0.02 mM 4,4-dimethyl4-silapentane-1-sulfonic acid (DSS). […]
The P1 pulses were 9 µs at a power of 7.9 W. Presaturation was applied between acquisitions for 100 ms at a power level of 280 mW and acquisition was carried out of 85 2 µs. Water […]
180 o pulses of 1 ms. Repetition times were chosen to achieve suitable water suppression with the presat and watergate sequences used in 95 % H2O solution. The length of the CPMG element was chosen to achieve good differentiation between unbound and strongly bound ligands. Data was collected with 16,384 points and a spectral width of 16.0242 ppm, receiver gain was set to 128, with 512 scans, 8 dummy scans and an acquisition time of 0.85 s. Data was processed using MestreNova software. All spectra were automatically phased, baselined corrected using a polynomial function and calibrated to the centre of the DSS peak.
Fitting of 1H NMR CPMG data: The data was fit to Michaelis Menten and Hill plot models and compared through R2 analysis using Origin 2022 software,5 growth/sigmoidal category, Hill/MichaelisMenten function, Levenberg Marquardt iteration algorithm. Vmax fixed to 100 % as this was the greatest proportion of SSA that could be coordinated to the nanodiscs. […]
`Cc1ccc2nc(-c3ccc(NC(=O)NCS(=O)(=O)O)cc3)sc2c1` [SSA 6] was tested, and the “SSA: phospholipid vesicle interaction / selectivity (FP titration)” value was “limited selectivity with a preference for PC, PG and E. coli polar over the E. coli total and PG : PE mix”. `O=C(NCS(=O)(=O)O)Nc1ccc(-c2nc3ccccc3s2)cc1` [SSA 8] was tested, and the “SSA: phospholipid vesicle interaction / selectivity (FP titration)” value was “little selectivity for different phospholipid membranes”. `Cc1ccc2nc(-c3ccc(NC(=O)NCCCS(=O)(=O)O)cc3)sc2c1` [SSA 10] was tested, and the “SSA: phospholipid vesicle interaction / selectivity (FP titration)” value was “little selectivity for different phospholipid membranes”. For `Cc1ccc2nc(-c3ccc(NC(=S)NCS(=O)(=O)O)cc3)sc2c1` [SSA 12], the “SSA: phospholipid vesicle interaction / selectivity (FP titration)” value was “strong interaction with all phospholipid vesicles tested”.

What follows are molecules tested on calcein loaded phospholipid vesicles (PC, PG, PE-PG mix, E. coli total, E. coli polar) (assay: Synthetic phospholipid vesicle lysis (calcein leakage) assay). Settings: SSA 1.5 mM; 15 min vs 30 s; E. coli-based vesicles; in words.
Protocol: Here, samples of phospholipid vesicles containing the fluorescent dye calcein were prepared. At internal vesicle concentrations, this dye undergoes self-quenching. […] The increase in fluorescence output is proportional to the % of vesicle lysis observed upon the addition of SSAs 1–14, when calibrated against a solution of vesicles know to have undergone 100% lysis, see Fig. 5.
Fig. 5 The average (n = 3) percentage lysis (%) of vesicles (30 μM) composed of five different lipid compositions (Table 2), with an internal calcein concentration of 70 mM at 298 K. The % vesicle lysis was calculated through observation of increasing fluorescence emission (λem = 515 nm), following the addition of SSAs […] (1.5 mM) in a H2O/EtOH 95 : 5 solution after: (a) 30 s and; (b) 15 min. Triton X-100 (1%) was used as a positive control for 100% vesicle lysis. Data normalised to the addition of a H2O/EtOH 95 : 5 solution. Red = PC, yellow = PG, green = PE-PG mix, blue = E. coli total, pink = E. coli polar. Error = standard error.
Section 2: General Methods […]
Preparation of vesicles: All lipids were purchased as powder stocks from Avanti Polar Lipids. Lipid vesicles were prepared according to standard procedures.1 Each phospholipid was dissolved in chloroform (~ 10 mL) and the solvent was removed under reduced pressure. The thin film of dried lipid was further dried in vacuo for at least 2 hours. Lipid films were resuspended in the desired buffer and subjected to 9 freeze-thaw cycles in liquid nitrogen and extruded 20 times through a 200 nm […]
Preparation of calcein loaded vesicles: Lipid films were resuspended in buffer A (70 mM calcein, 10 mM TRIS pH 8.5, 0.5 mM EDTA, 110 mM NaCl, pH adjusted to 6-7) and subjected to 9 freeze-thaw cycles in liquid nitrogen and extruded 20 times through a 200 nm polycarbonate membrane. The suspension was run down a size exclusion column packed with sephadex G-50 using buffer B (10 mM TRIS pH 8.5, 0.5 mM EDTA, 110 mM NaCl). The hydrodynamic dimeter of the lipids was monitored using an Anton Paar LitesizerTM 500 to ensure the separation of free and entrapped calcein.
Phospholipid concentration was adjusted to 30 µM for vesicle leakage experiments.
Vesicle leakage assay: Black bottom 96-well plates were prepared with the appropriate lipid solution (100 µL, 30 µM) and desired SSA solution (100 µL) prepared in H2O/EtOH 95: 5. A solution of 1 % Triton X-100 (16) was used for a 100 % lysis control and a H2O/EtOH 95: 5 solution was used as a 0 % lysis control. Fluorescent measurements were taken at 25 °C using an excitation value of 495 nm and an optimised gain of 983. Data were acquired in endpoint mode. All experiments were repeated in triplicate to ensure experimental reproducibility. […]
Data
`Cc1ccc2nc(-c3ccc(NC(=O)NCS(=O)(=O)O)cc3)sc2c1` [SSA 6] was tested, and the “time dependence of vesicle lysis” value was “time dependent enhancement of vesicle lysis”. `O=C(NCS(=O)(=O)O)Nc1ccc(-c2nc3ccccc3s2)cc1` [SSA 8] was tested, and the “time dependence of vesicle lysis” value was “time dependent enhancement of vesicle lysis”. For `Cc1ccc2nc(-c3ccc(NC(=O)NCCC(=O)O)cc3)sc2c1` [SSA 9], the “time dependence of vesicle lysis” value was “time dependent enhancement of vesicle lysis”. For `Cc1ccc2nc(-c3ccc(NC(=O)NCCCS(=O)(=O)O)cc3)sc2c1` [SSA 10], the “time dependence of vesicle lysis” value was “time dependent enhancement of vesicle lysis”.

Same assay, conditions: SSA 1.5 mM; thirty seconds after SSA addition; five vesicle types; in words
`Cc1ccc2nc(-c3ccc(NC(=O)NCC(=O)O)cc3)sc2c1` [SSA 11] was tested, and the vesicle lysis activity was “general surfactant type properties, similar to that of Triton”.

Each molecule was assayed on calcein loaded phospholipid vesicles (PC, PG, PE-PG mix, E. coli total, E. coli polar) in the same assay as above. Settings: SSA titration; concentrations ≤0.5 mM; after 15 min; in words.
With `O=C(NCS(=O)(=O)O)Nc1ccccc1-c1nc2ccccc2s1` [SSA 5] the “vesicle lysis PG over PC” value was “enhanced levels of vesicle lysis against PG”. With `Cc1ccc2nc(-c3ccc(NC(=O)NCS(=O)(=O)O)cc3)sc2c1` [SSA 6] the “vesicle lysis PG over PC” value was “enhanced levels of vesicle lysis against PG”. For `O=C(NCS(=O)(=O)O)Nc1ccc(-c2nc3ccccc3s2)cc1` [SSA 8], the “vesicle lysis PG over PC” value was “enhanced levels of vesicle lysis against PG”.
